The text below walks through data of patent US20050170360A1, “Variant neuronal nicotinic alpha-7 receptor and methods of use” (priority 2004, published 2005).

Like-named read-outs stand apart in the source and are kept apart here.

For one experiment, the target named is rat α7 TM2 T6'S (Rattus norvegicus, UniProt Q05941, T267S). Nature of the experiment: Two-electrode voltage-clamp recording of Xenopus oocytes expressing α7 TM2 T6'S mutant. In general terms: In two-electrode clamp one electrode senses voltage and the other passes current.
The next experiment deals with wild-type α7 nAChR (Rattus norvegicus, UniProt Q05941). Nature of the experiment: Two-electrode voltage-clamp recording of Xenopus oocytes expressing wild-type α7.
In the next experiment the target is L247T mutant (UniProt P22770, L270T, species not given). Type of experiment: cell-based. The following applies: for type of activity (agonist / antagonist): L247T.
The next experiment concerns the target T1, muscle-type receptors (Mus musculus, UniProt P02716+P04756).
T1 construct: expressed in transfected cells; host or cells: Xenopus laevis oocytes injected with cRNA
The experiment is described as follows: Two-electrode voltage-clamp recording of Xenopus oocytes expressing muscle-type receptors. Type of experiment: cell-based. The source says:
(§1) Expression in Xenopus oocvtes.
(§2) Voltage-clamp recording of whole oocate responses.

Another experiment has as its target T2, rat α7 TM2 T6'F (Rattus norvegicus, UniProt Q05941, T267F).
T2 construct: expressed in transfected cells; host or cells: Xenopus laevis oocytes injected with cRNA
Nature of the experiment: Two-electrode voltage-clamp recording of Xenopus oocytes expressing α7 TM2 T6'F mutant. Type of experiment: cell-based.
Text: Site-directed mutagenesis.
as §1, §2

Protocol for rat α7 TM2 T6'S: Expression in Xenopus oocvtes. Mature (>9 cm) female Xenopus laevis African toads (Nasco, Ft. Atkinson, Wis.) were used as a source of oocytes. Prior to surgery, frogs were anesthetized by placing the animal in a 2 g/L solution of MS222 (3-aminobenzoic acid ethyl ester). Oocytes were removed from an incision made in the abdomen.
(§3) Subsequently, stage 5 oocytes were isolated and injected with 50 nl each of a mixture of the appropriate subunit cRNAs following harvest. Recordings were made 3 to 21 days after injection depending on the cRNAs being tested.
(§4) Voltage-clamp recording of whole oocate responses. Data were obtained by means of two-electrode voltage-clamp recording. […] This extracellular solution was used for all experiments unless otherwise noted.
(§5) Bath solution and drug applications are applied through a linear perfusion system to oocytes placed in Lucite chamber with a total volume of 0.5 ml. Drug delivery involves pre-loading a 1.8 ml length of tubing at the terminus of the perfusion system, while a Mariotte flask filled with Ringer's solution is used to maintain constant perfusion. Applications of drug solutions are then synchronized with acquisition. […] In addition, some oocyte recordings were made using a beta version of the OpusXpress 6000A (Axon Instruments, Union City, Calif.). OpusXpress is an integrated system that provides automated impalement and voltage clamp, which in our case permitted the study of four oocytes in parallel. Cells were automatically perfused with bath solution, and agonist solutions were delivered from a 96-well compound plate. In experiments using the OpusXpress system, the voltage and current electrodes were filled with 3 M KCl. In all experiments, bath flow rates were set at 6 ml/minute.
(§6) Experimental protocols and analysis of data from Xenopus oocytes. Current responses to drug application were studied under two-electrode voltage clamp at a holding potential of −50 mV unless otherwise noted (−60 mV for the OpusXpress system). Holding currents immediately prior to agonist application were subtracted from measurements of the peak response to agonist. All drug applications were separated by a wash period of 5 minutes unless otherwise noted. […] Means and standard errors (SEM) were calculated from the normalized responses of at least four oocytes for each experimental concentration.
(§7) For concentration-response relations, data were plotted using Kaleidagraph 3.0.2 (Abelbeck Software; Reading, Pa.), and curves were generated using the Hill equation: [formula] where Imax denotes the maximal response for a particular agonist/subunit combination, and n represents the Hill coefficient. Imax, n, and the EC50 were all unconstrained for the fitting procedures.
(§8) Calculations of peak amplitudes and net charge were made using pClamp either during acquisition or during subsequent Clampfit analysis.
Protocol for wild-type α7 nAChR: Mature (>9 cm) female Xenopus laevis African toads (Nasco, Ft. Atkinson, Wis.) were used as a source of oocytes. Prior to surgery, frogs were anesthetized by placing the animal in a 2 g/L solution of MS222 (3-aminobenzoic acid ethyl ester). Oocytes were removed from an incision made in the abdomen.
as §3, §4, §5, §6, §7, §8

In the case of `COc1cc2c3cc1Oc1cc(ccc1O)C[C@@H]1c4c(cc(OC)c(O)c4Oc4ccc(cc4)C[C@@H]3N(C)CC2)CC[N+]1(C)C` [Tubocurarine], the “type of activity (agonist / antagonist / potentiation)” value at rat α7 TM2 T6'S (T6'S) and at wild-type α7 nAChR (Wild type) was “antagonist” in each case. Besides, the “type of activity (agonist / antagonist)” value on L247T mutant is listed as “agonist”.

For the compound `C[N+](C)(C)CCOC(=O)CCC(=O)OCC[N+](C)(C)C` [succinylcholine], on muscle-type receptors, the type of activity entry was “Selective Agonist”. Moreover, the activation of receptor result at rat α7 TM2 T6'S is reported as “virtually no response”; at wild-type α7 nAChR, “relatively ineffective”; on rat α7 TM2 T6'F (100 μM succinylcholine) it was “dramatic increase in sensitivity”. Also, the concentration-response function entry on rat α7 TM2 T6'S (full range of concentrations) is reported as “respond poorly”; on wild-type α7 nAChR (full range of concentrations) it was “respond poorly”; on rat α7 TM2 T6'F (full range of concentrations), “relatively potent, full agonist”.

In general, EC50 refers to the concentration needed to bring the measured effect to its halfway point. A higher EC50 goes with lower potency in that assay. As to `COc1ccc(/C=C2\CCCN=C2c2cccnc2)c(OC)c1` [GTS-21 (DMXB)], the EC50 on rat α7 TM2 T6'S was determined as 3 µM; on wild-type α7 nAChR, 5 µM. The “% agonist” value worked out at 12% at rat α7 TM2 T6'S (T6'S) and 32% at wild-type α7 nAChR (Wild type). On L247T mutant, the “type of activity (agonist / antagonist)” value is reported as “full”.

For the compound `NCCc1c[nH]c2ccc(O)cc12` [5-HT], the “type of activity (agonist / antagonist / potentiation)” value on rat α7 TM2 T6'S (T6'S) and on wild-type α7 nAChR (Wild type) was “antagonist” each time. In addition, on L247T mutant, the “type of activity (agonist / antagonist)” value was “agonist”.

Take `O=C1NCC2(CN3CCC2CC3)O1` (centres unmarked) [AR-R17779]: the “% agonist” value at rat α7 TM2 T6'S (T6'S) came to 90% agonist 30 μM; on wild-type α7 nAChR (Wild type) it was 78% agonist 10 μM.

Take `C[N+](C)(C)CCO` [Choline]: the EC50 at rat α7 TM2 T6'S is 2000 µM; on rat α7 TM2 T6'S (EC50, T6'S column), ~360 µM; at wild-type α7 nAChR it was 300 µM; at L247T mutant it was 12 µM. Besides, the results for the “% agonist” value at rat α7 TM2 T6'S (T6'S) and on wild-type α7 nAChR (Wild type) were 95% agonist 2 mM and 100% agonist 300 μM, respectively.

As to `CNCC/C=C/c1cccnc1` [TC-2403], the values for the EC50 at rat α7 TM2 T6'S and at wild-type α7 nAChR were 400 µM and 240 µM, respectively. Moreover, the “% agonist” value on rat α7 TM2 T6'S (T6'S) is 18% agonist; at wild-type α7 nAChR (Wild type), 16%.

As to `C[N+](C)(C)CCCCCC[N+](C)(C)C` [Hexamethonium], the “type of activity (agonist / antagonist / potentiation)” value on rat α7 TM2 T6'S (T6'S) and on wild-type α7 nAChR (Wild type) was “antagonist” each time. The “type of activity (agonist / antagonist)” value on L247T mutant is recorded as “agonist”.

For `[Zn+2]` [Zinc], the “type of activity (agonist / antagonist / potentiation)” value on rat α7 TM2 T6'S (T6'S) and on wild-type α7 nAChR (Wild type) was “antagonist” throughout. Moreover, the “type of activity (agonist / antagonist)” value on L247T mutant is recorded as “agonist”.

For `O=c1cccc2n1C[C@@H]1CNC[C@H]2C1` [Cytisine], at rat α7 TM2 T6'S, the “% agonist” value was 80% agonist 43 μM and the midpoint of the response, the EC50, lay at 43 µM. Besides, at wild-type α7 nAChR, the “% agonist” value is on record as 73% agonist 13 μM and the EC50 stood at 13 µM.

Regarding `Oc1ccc2[nH]ccc2c1` [5HI, 5-hydroxy-indole], the results for the “type of activity (agonist / antagonist / potentiation)” value on rat α7 TM2 T6'S (T6'S) and at wild-type α7 nAChR (Wild type) were “does not potentiate” and “potentiates”, respectively.

Turning to `CN1[C@@H]2CC[C@H]1C[C@@H](OC(=O)c1c[nH]c3ccccc13)C2` [Tropisetron], the figures for the “% agonist” value at rat α7 TM2 T6'S (T6'S) and on wild-type α7 nAChR (Wild type) were 30% and 38%, respectively.
